One test concerns Mice. As to the kind of experiment: animal or person. It is filed as in vivo. As to conditions: Mus musculus, po, read-out: MES test ED50.
For `CO[C@@H](c1ccccc1Cl)[C@H](C)OC(N)=O` [Example 124, 1-(2-chlorophenyl)-(S)-1-methoxypropyl-(S)-2-carbamate], the 50% effective dose (ED50) was determined as 15.6 mg/kg.

The same test, now with this note: Mus musculus, po, read-out: MES test Protection %.
As to `COCO[C@@H](c1ccccc1I)[C@@H](OC(N)=O)C(C)C` [Example 36, 1-(2-iodophenyl)-(S)-1-methoxymethoxy-3-methyl-butyl-(S)-2-carbamate], the responders at 90 mg/kg was 100%.

Take `CCCC[C@H](OC(N)=O)[C@@H](OCOC)c1ccccc1I` [Example 44, 1-(2-iodophenyl)-(S)-1-methoxymethoxyhexyl-(S)-2-carbamate]: the responders at 90 mg/kg amounted to 100%.

In the case of `COCO[C@H](c1ccccc1Cl)[C@@H](C)OC(N)=O` [Example 69, 1-(2-chlorophenyl)-(R)-1-methoxymethoxypropyl-(R)-2-carbamate], the responders at 90 mg/kg was 66.6%.

As for `COCO[C@H](c1c(Cl)cccc1Cl)[C@@H](C)OC(N)=O` [Example 107, 1-(2,6-dichlorophenyl)-(R)-1-methoxymethoxypropyl-(R)-2-carbamate], the responders at 30 mg/kg amounted to 33.3%.

Turning to `CCCC[C@H](OC(N)=O)[C@@H](OC)c1ccccc1I` [Example 167, 1-(2-iodophenyl)-(S)-1-methoxyhexyl-(S)-2-carbamate], the responders at 90 mg/kg is 33.3%.

For the compound `CO[C@@H](c1cccc(I)c1)[C@@H](OC(N)=O)C(C)C` [Example 177, 1-(3-iodophenyl)-(S)-1-methoxy-3-methyl-butyl-(S)-2-carbamate], the responders at 90 mg/kg is 66.6%.

For `CO[C@@H](c1ccc(F)cc1)[C@H](C)OC(N)=O` [Example 179, 1-(4-fluorophenyl)-(S)-1-methoxypropyl-(S)-2-carbamate], the responders at 90 mg/kg was 33.3%.

Consider `CCCC[C@@H](OC(N)=O)[C@H](OC)c1ccc(F)cc1` [Example 213, 1-(4-fluorophenyl)-(R)-1-methoxyhexyl-(R)-2-carbamate], for which the responders at 90 mg/kg is 33.3%.

As for `CC[C@@H](OC(N)=O)[C@H](OC)c1ccc(Cl)cc1Cl` [Example 232, 1-(2,4-dichlorophenyl)-(R)-1-methoxybutyl-(R)-2-carbamate], the responders at 90 mg/kg is 33.3%.

As for `CC(OC(N)=O)C(OC(N)=O)c1ccccc1Cl` (stereo not shown) [Example 251, 1-(2-chlorophenyl)-2-carbamoyloxypropyl-1-carbamate], the responders at 100 mg/kg stood at 33.3%.

Regarding `C[C@H](OC(N)=O)[C@@H](OC(N)=O)c1ccccc1I` [Example 259, 1-(2-iodophenyl)-(S)-1-carbamoyloxypropyl-(S)-2-carbamate], the responders at 90 mg/kg worked out at 66.6%.

In the case of `C[C@H](OC(N)=O)[C@@H](OC(N)=O)c1c(Cl)cccc1Cl` [Example 267, 1-(2,6-dichlorophenyl)-(S)-1-carbamoyloxypropyl-(S)-2-carbamate], the responders at 50 mg/kg is 16.6%.

For `COCO[C@H](c1cc(Cl)ccc1Cl)[C@@H](C)OC(N)=O` [Example 273, 1-(2,5-dichlorophenyl)-(R)-1-methoxymethoxypropyl-(R)-2-carbamate], the responders at 30 mg/kg is 33.3%.

With `CO[C@@H](C)[C@@H](OC(N)=O)c1ccccc1Cl` [Example 275, 1-(2-chlorophenyl)-(S)-2-methoxypropyl-(S)-1-carbamate], the responders at 90 mg/kg turned out to be 100%.

As to `COCO[C@H](COC(N)=O)c1ccccc1I` [Example 278, 1-(2-iodophenyl)-(S)-1-methoxymethoxyethyl-2-carbamate], the responders at 30 mg/kg amounted to 33.3%.

Turning to `COCO[C@@H](C)[C@@H](OC(N)=O)c1ccccc1I` [Example 282, 1-(2-iodophenyl)-(S)-2-methoxymethoxypropyl-1-carbamate], the responders at 90 mg/kg was found to be 33.3%.

As to `CO[C@@H](C)[C@@H](OC(N)=O)c1ccccc1I` [Example 283, 1-(2-iodophenyl)-(S)-2-methoxypropyl-1-carbamate], the responders at 90 mg/kg is 100%.

`COCO[C@@H](C)[C@@H](OC(N)=O)c1ccccc1F` [Example 284, 1-(2-fluorophenyl)-(S)-2-methoxymethoxypropyl-1-carbamate]: the responders at 90 mg/kg came to 33.3%.

By ED50 is commonly meant the dose that gives a 50% effect, or the effect in half of the subjects.

The values above are taken from patent publication US9504668B2 (priority 2013, dated 2016).
